Measurements from patent US8470874B2, “Pharmaceutical compositions comprising cannabichromene type compounds” (GW Pharma Limited, priority 2003, dated 2013).
Read-outs that look alike come from different tables or passages of the source.

What was measured:
[1] = tested on: C57BL6BYJ mice; assay: tail suspension test; type: in vivo; details: male mice
Method: The experiment used 112 C57BL6BYJ mice (Jackson Laboratories, Bar Harbor, Me.) which were housed in same sex groups (n=3-5) and maintained on a reversed 12 h light-dark cycle, with all testing being completed during the first 4 h of the dark phase cycle. Food and water were provided ad libitum except during behavioural testing. The subjects were six weeks old at the time of testing and consisted of groups with equal numbers of males (18-26 g) and females (15-21 g).
The substantially pure CBC extract (54.0 mg/ml in ethanol) was diluted in Tween 80 and subsequently diluted further to the correct dose with PBS (pH 7.4). The final concentration of Tween 80 was 5% for all preparations.
Imipramine (30 mg/kg) was used as an antidepressant control and diluted as per the CBC extract. Test article at doses of 0, 5, 10, 20, 40, 80 mg/kg/0.01 ml/g bodyweight were administered i.p. under sodium light to minimise exposure to light.
For the tail suspension test, a sound-attenuated chamber (Lafayette Instruments, Lafayette, Ind.) with a titanium bar (1 cm diameter×24 cn long) mounted 15 cm from the floor of the test chamber was used. An opto-electronic sensor was mounted in a 4 cm×4 cm white plastic column and positioned 5 cm from the mounting bar. An infra-red light transmitted from the light emitting diode onto the animal. If the animal moved, the amount of light collected by the phototransistor would increase or decrease depending on the size and duration of the movement. The opto-electric sensor was connected to an interface designed to condition and amplify the signal (range 0-10 volts) and then send the amplified signal to an A/D interface board (Powerlab 4/s: AD Instruments, Mountain View, Calif.) connected to a Macintosh G4 microcomputer. The duration of the experiment and the recording of raw behavioural responses was controlled and saved to a data file using Chart 3.6 data collection software (AD Instruments, Mountain View, Calif.).
On the day of testing, the mice were weighed and randomly assigned to groups with the restriction that equal numbers of males and females be represented in each group. Test article or control drug was injected intraperitoneally. Thirty minutes later each mouse was tested on the tail-suspension test for six minutes.
The mouse was suspended from a bar by the tail using adhesive tape so that the tip of their nose was 2 cm from the floor of the tail suspension chamber. The photodiode was then placed 5 cm away from the subject and aimed at the middle of the subject's ventral surface. Each subject was tested for six minutes. The total number of movements and total amount of time spent immobile were recorded. […] A period of immobility was counted only if no movements above 350 mV were recorded for at least 1000 ms. The total amount of time spent immobile was calculated by summing the duration of the individual immobility periods. These criteria were selected to be similar to those used in previous tail suspension studies (e.g., Steru et al., 1985).
Antidepressant effects are indicated by an increase in the frequency of struggling activity during the test. In addition the degree or amplitude of struggling is thought to be a predictor of antidepressant activity.
The results shown in FIGS. 2 to 7 are from the male mice only as the data obtained from the female mice were confounded by the oestrous cycle.

[2] = tested on: mice; details: cited from earlier work
[3] = tested on: prostaglandin synthesis; details: in vitro; cited from earlier work
[4] = tested on: erythrocyte membrane; details: in vitro, equivalent doses; cited from earlier work
[5] = tested on: dogs; details: cited from earlier work
[6] = tested on: monkeys or humans; details: cited from earlier work
[7] = tested on: rats; details: co-administration of CBC with THC; cited from earlier work
[8] = tested on: rats; details: cited from earlier work
[9] = tested on: rat paw edema; details: in vivo, equivalent doses; cited from earlier work

## CN(C)CCCN1c2ccccc2CCc2ccccc21 [imipramine, reference compound]
[1]; imipramine 30 mg/kg/0.01 ml/g bodyweight i.p., 30 min after dosing, 6 min test
  activity mean (all activity): 733.5

## CCCCCc1cc(O)c2c(c1)OC(C)(C)[C@@H]1CCC(C)=C[C@@H]21 [Δ9-THC]
[2]; single intraperitoneal dose
  LD50: 276.3 mg/kg
[2]; Δ9-THC with 25 mg/kg CBC given concurrently
  LD50: 152.0 mg/kg

## CCCCCc1cc(O)c2c(c1)OC1(C)CCC3C1C2C3(C)C (centres unmarked) [Cannabicyclol]
[3]
  inhibition of prostaglandin synthesis: almost no inhibitory activity

## CCCCCc1cc(O)c2c(c1)OC(C)(CCC=C(C)C)C=C2 (centres unmarked) [CBC, cannabichromene]
[4]
  anti-inflammatory effect compared with phenylbutazone: as effective as phenylbutazone (PBZ)
[3]
  inhibition of prostaglandin synthesis: less potently than THC or CBD
[1]; CBC 10 mg/kg/0.01 ml/g bodyweight i.p. vs imipramine 30 mg/kg
  all activity compared with imipramine: comparable to those observed in the mice administered imipramine
[1]; CBC 20 mg/kg/0.01 ml/g bodyweight i.p.
  degree of struggling (percentage very large vigorous movements), mean: 31.4%
[1]; CBC 80 mg/kg/0.01 ml/g bodyweight i.p.
  degree of struggling (percentage very large vigorous movements), mean: 30.2%
[1]; CBC 10 and 40 mg/kg/0.01 ml/g bodyweight i.p. vs imipramine 30 mg/kg
  number of large vigorous movements compared with imipramine: comparable number of large vigorous movements
[1]; CBC 20 or 80 mg/kg/0.01 ml/g bodyweight i.p. vs imipramine 30 mg/kg
  number of large vigorous movements compared with imipramine: greater number of large vigorous movements in the animals than imipramine
[1]; i.p., from Fisher's PLSD of struggling
  most efficient dose for antidepressant action: 20 mg/kg/0.01 ml/g bodyweight
[5]
  sedation: causes sedation
[2]; single intraperitoneal dose
  LD50: 113.4 mg/kg
[6]
  cannabimimetic activity: has not been shown to cause any cannabimimetic activity
[7]
  effect on THC changes in heart rate: potentiates the THC changes in heart rate
  effect on THC's hypotensive effects: does not potentiate THC's hypotensive effects
[8]
  muscular coordination: decreased muscular coordination
[9]
  anti-inflammatory effect compared with phenylbutazone: as effective as phenylbutazone (PBZ)

## CCCCCc1cc(O)cc(O)c1 [Olivetol]
[3]
  inhibition of prostaglandin synthesis: high activity
